Data from US9936701B2, “Herbicidal compounds” (Syngenta Participations AG, priority 2013, dated 2018).

Experiments:
[1] = tested on: a variety of test species; assay: Post-emergence herbicidal activity (glasshouse, sprayed after 8 days cultivation, evaluated after 13 days); format: in vivo; design: key: 5=total damage to plant; 0=no damage to plant; settings: rate 1000 g/Ha, scale 0-5
Summary of the method: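 Damage rating 0 (none) to 5 (total), assessed 13 days after spraying. Plants received the compound in acetone/water 50:50 with 0.5% Tween 20 at 8 days post-sowing, then were kept at 24/16 °C, 14 h photoperiod, 65% RH.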

[2] = tested on: a variety of test species; assay: Pre-emergence herbicidal activity (glasshouse, sprayed one day after sowing, evaluated after 13 days); format: in vivo; design: key: 5=total damage to plant; 0=no damage to plant; settings: application pre-emergence, rate 1000 g/Ha, scale 0-5
Summary of the method: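 Pre-emergence spray, one day post-sowing; vehicle acetone/water (50:50) + 0.5% Tween 20, aqueous dilution. Glasshouse 24/16 °C, 14 h light, 65% RH, watering twice daily. Score at 13 d on 0–5 scale, 5 = total damage.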

| Structure (SMILES) | melting point [°C] | ABUTH (Abutilon theophrasti) damage score, application post-emergence [1] | ALOMY (Alopecurus myosuroides) damage score, application post-emergence [1] | AMARE (Amaranthus retroflexus) damage score, application post-emergence [1] | ECHCG (Echinochloa crus-galli) damage score, application post-emergence [1] | SETFA (Setaria faberi) damage score, application post-emergence [1] | ZEAMX (Zea mays) damage score, application post-emergence [1] | Pre-emergence herbicidal damage score, ABUTH [2] | Pre-emergence herbicidal damage score, ALOMY [2] | Pre-emergence herbicidal damage score, AMARE [2] | Pre-emergence herbicidal damage score, ECHCG [2] | Pre-emergence herbicidal damage score, SETFA [2] | Pre-emergence herbicidal damage score, ZEAMX [2] |
| --- | --- | --- | --- | --- | --- | --- | --- | --- | --- | --- | --- | --- | --- |
| COC1=C(Cl)C(OC(C)=O)N(c2cc(C(C)(C)C)on2)C1=O (centres unmarked) [E2, [1-(5-tert-butylisoxazol-3-yl)-3-chloro-4-methoxy-5-oxo-2H-pyrrol-2-yl]acetate] | 101 to 107 | 5 | 3 | 5 | 5 | 5 | 0 | 5 | 3 | 5 | 4 | 3 | 1 |
| CCC(C)(C)c1onc(N2C(=O)C(Cl)=C(C)C2O)c1C#N (centres unmarked) [A40] | 166 to 168 | 5 | 4 | 5 | 5 | 5 | 3 | 4 | 3 | 5 | 5 | 5 | 2 |
| CCc1onc(N2C(=O)C(Cl)=C(C)C2O)c1C#N (centres unmarked) [A71] | 95 to 97 | 5 | 4 | 5 | 5 | 5 | 2 | 4 | 3 | 5 | 4 | 5 | 2 |
| CCCCC(C)(C)c1onc(N2C(=O)C(Cl)=C(C)C2O)c1C#N (centres unmarked) [A47] | 99 to 101 | 5 | 5 | 5 | 5 | 5 | 2 | 0 | 2 | 5 | 2 | 1 | 2 |
| CC1=C(Cl)C(=O)N(c2cc(C(C)(C)CO)on2)C1O (centres unmarked) [A39] | 130 to 132 | 4 | 3 | 5 | 5 | 1 | 1 | 1 | 1 | 4 | 3 | 0 | 1 |
| COC1=C(C)C(O)N(c2cc(C(C)(C)C)on2)C1=O (centres unmarked) [D1, 1-(5-tert-butylisoxazol-3-yl)-2-hydroxy-4-methoxy-3-methyl-2H-pyrrol-5-one] | 82 to 95 | 5 | 4 | 5 | 5 | 5 | 4 | 5 | 4 | 5 | 4 | 5 | 2 |
| CC1=C(Cl)C(=O)N(c2cc(C(C)(C)CC#N)on2)C1O (centres unmarked) [A72] | 103 to 105 | 5 | 5 | 5 | 5 | 5 | 5 | 5 | 4 | 5 | 5 | 5 | 4 |
| COC1=C(Br)C(=O)N(c2cc(C(C)(C)C)on2)C1O (centres unmarked) [B2] | 140 to 160 | 5 | 4 | 5 | 5 | 4 | 5 | 5 | 4 | 5 | 5 | 4 | 1 |
